In assay [1] the test system is T47D (PI3Kα-H1047R) cell line. In words: HTRF phospho-AKT(S473) cell assay in T47D cells. The format is cell-based, human. In a few lines: (§1)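 Cells plated overnight (T47D in RPMI/10% FBS/0.2 units/mL insulin; SKBR3 in McCoy's 5A/10% FBS), then given 12-point 1:3 compound series (top 5 μM T47D, 10 μM SKBR3; ≤0.5% DMSO) for 2 h at 37° C. SKBR3 stimulated with 70 ng/ml PDGF-BB for final 15 min. Lysate pAKT(S473) by HTRF; IC50 calculated.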

In assay [2] the test system is SKBR3 (PI3Kα-Wild Type) cell line. The experiment in a line: HTRF phospho-AKT(S473) cell assay in SKBR3 cells. The format is cell-based, human. In a few lines: as §1
For orientation: In TR-FRET formats the signal depends on donor and acceptor labels being close together.

The mark [3] stands for this setting: Homo sapiens; T47D (PI3Kα-H1047R) cells, HTRF phospho-AKT(S473), 2 hours compound incubation.
[4] abbreviates: Homo sapiens, SK-BR-3; SKBR3 (PI3Kα-Wild Type) cells, HTRF phospho-AKT(S473), 2 hours compound incubation, PDGF-BB stimulated.
Setting [5] is: Homo sapiens; HTRF phospho-AKT(S473), T47D (PI3Kα-H1047R) cells, 2 hours compound incubation.
The mark [6] stands for this setting: Homo sapiens, SK-BR-3; HTRF phospho-AKT(S473), SKBR3 (PI3Kα-Wild Type) cells, 2 hours compound incubation, PDGF-BB stimulated.

SMILES strings stand for the structures.

The term IC50 denotes the concentration that inhibits the measured activity by half.

Consider `Cc1cc([C@@H](C)Nc2ccc(Cl)nc2C(=O)NS(C)(=O)=O)c2nc(N3C[C@H]4C[C@@H](c5cnn(C)c5)[C@@H]3C4)n(C)c(=O)c2c1` [Compound 321, 6-chloro-3-(((R)-1-(3,6-dimethyl-2-((1S,4S,6RS)-6-(1-methyl-1H-pyrazol-4-yl)-2-azabicyclo[2.2.1]heptan-2-yl)-4-oxo-3,4-dihydroquinazolin-8-yl)ethyl)amino)-N-(methylsulfonyl) picolinamide], for which the IC50 in assay [1] (setting [3]) was 0.25 to 0.5 µM; in assay [2] (setting [4]) it was 1 to 5 µM.

On to `Cc1cc([C@@H](C)Nc2ccc(Cl)nc2C(=O)NS(C)(=O)=O)c2nc(-c3ccc4[nH]ncc4c3)n(C)c(=O)c2c1` [Compound 832, (R)-3-((1-(2-(1H-indazol-5-yl)-3,6-dimethyl-4-oxo-3,4-dihydroquinazolin-8-yl)ethyl)amino)-6-chloro-N-(methylsulfonyl) picolinamide], for which the IC50 in assay [1] (setting [5]) lay within 0.25 to 0.5 µM; in assay [2] (setting [6]), 1 to 5 µM.

`[2H]C([2H])([2H])n1ccc([C@H]2[C@@H]3CN(c4nc5c([C@@H](C)Nc6ccc(Cl)nc6C(=O)NS(C)(=O)=O)cc(C)cc5c(=O)n4CC)C[C@@H]32)n1` [Compound 731, 6-chloro-3-(((R)-1-(3-ethyl-6-methyl-2-((1R,5S,6R)-6-(1-(methyl-d3)-1H-pyrazol-3-yl)-3-azabicyclo[3.1.0]hexan-3-yl)-4-oxo-3,4-dihydroquinazolin-8-yl)ethyl)amino)-N-(methylsulfonyl) picolinamide]: the IC50 in assay [1] (setting [5]) is < 0.25 µM; in assay [2] (setting [6]), 1 to 5 µM.

With `Cc1cnc(N2C[C@@H]3[C@H](C2)[C@H]3c2nc3c([C@@H](C)Nc4ccc(Cl)nc4C(=O)NS(C)(=O)=O)cc(C)cc3c(=O)n2C)nc1` [Compound 810, 6-chloro-3-(((R)-1-(3,6-dimethyl-2-((1R,5S,6r)-3-(5-methylpyrimidin-2-yl)-3-azabicyclo[3.1.0]hexan-6-yl)-4-oxo-3,4-dihydroquinazolin-8-yl)ethyl)amino)-N-(methylsulfonyl) picolinamide], the figures for the IC50 in assay [1] (setting [5]) and in assay [2] (setting [6]) were 0.25 to 0.5 µM and ≥ 5 µM, respectively.

For `[2H]C([2H])([2H])n1ccc([C@H]2[C@@H]3CN(c4nc5c([C@@H](C)Nc6ccc(Cl)nc6C(=O)NS(C)(=O)=O)cc(C)cc5c(=O)n4C)C[C@@H]32)n1` [Compound 493, 6-chloro-3-(((R)-1-(3,6-dimethyl-2-((1R,5S,6R)-6-(1-(methyl-d3)-1H-pyrazol-3-yl)-3-azabicyclo[3.1.0]hexan-3-yl)-4-oxo-3,4-dihydroquinazolin-8-yl)ethyl)amino)-N-(methylsulfonyl) picolinamide], the IC50 in assay [1] (setting [5]) was < 0.25 µM; in assay [2] (setting [6]), 1 to 5 µM.

Regarding `[2H]C([2H])([2H])n1cc(F)c(C2CCN(c3nc4c([C@@H](C)Nc5ccc(Cl)nc5C(=O)NS(C)(=O)=O)cc(C)cc4c(=O)n3C)CC2)n1` [Compound 456, (R)-6-chloro-3-((1-(2-(4-(4-fluoro-1-(methyl-d3)-1H-pyrazol-3-yl)piperidin-1-yl)-3,6-dimethyl-4-oxo-3,4-dihydroquinazolin-8-yl)ethyl)amino)-N-(methylsulfonyl) picolinamide], the results for the IC50 in assay [1] (setting [5]) and in assay [2] (setting [6]) were < 0.25 µM and ≥ 5 µM, respectively.

With `Cc1cc([C@@H](C)Nc2ccc(Cl)nc2C(=O)NS(C)(=O)=O)c2nc(N3CCC(Nc4cnn(C)c4)CC3)n(C)c(=O)c2c1` [Compound 291, (R)-6-chloro-3-((1-(3,6-dimethyl-2-(4-((1-methyl-1H-pyrazol-4-yl)amino)piperidin-1-yl)-4-oxo-3,4-dihydroquinazolin-8-yl)ethyl)amino)-N-(methylsulfonyl) picolinamide], the IC50 is < 0.25 µM in assay [1] (setting [3]) and 1 to 5 µM in assay [2] (setting [4]).

For the compound `Cc1cc([C@@H](C)Nc2ccc(Cl)nc2C(=O)NS(C)(=O)=O)c2nc(-c3cnn(-c4ccccc4)c3)n(C)c(=O)c2c1` [Compound 171, (R)-6-chloro-3-((1-(3,6-dimethyl-4-oxo-2-(1-phenyl-1H-pyrazol-4-yl)-3,4-dihydroquinazolin-8-yl)ethyl)amino)-N-(methylsulfonyl) picolinamide], the IC50 in assay [1] (setting [3]) was < 0.25 µM; in assay [2] (setting [4]), 1 to 5 µM.

In the case of `Cc1cc([C@@H](C)Nc2ccc(Cl)nc2C(=O)NS(C)(=O)=O)c2nc(N3Cc4cn(-c5ncc(C#N)cc5C)nc4C3)n(C)c(=O)c2c1` [Compound 698, (R)-6-chloro-3-((1-(2-(2-(5-cyano-3-methylpyridin-2-yl)-2,6-dihydropyrrolo[3,4-c]pyrazol-5(4H)-yl)-3,6-dimethyl-4-oxo-3,4-dihydroquinazolin-8-yl)ethyl)amino)-N-(methylsulfonyl) picolinamide], the IC50 in assay [1] (setting [5]) fell in the range of 0.25 to 0.5 µM; in assay [2] (setting [6]), 1 to 5 µM.

Consider `Cc1cc([C@@H](C)Nc2ccc(Cl)nc2C(=O)NS(C)(=O)=O)c2nc(N3C[C@@H]4[C@H](C3)[C@H]4n3cc(F)c(C)n3)n(C)c(=O)c2c1` [Compound 543, 6-chloro-3-(((R)-1-(2-((1R,5S,6S)-6-(4-fluoro-3-methyl-1H-pyrazol-1-yl)-3-azabicyclo[3.1.0]hexan-3-yl)-3,6-dimethyl-4-oxo-3,4-dihydroquinazolin-8-yl)ethyl)amino)-N-(methylsulfonyl) picolinamide], for which the results for the IC50 in assay [1] (setting [5]) and in assay [2] (setting [6]) were 0.25 to 0.5 µM and ≥ 5 µM, respectively.

Consider `Cc1cc([C@@H](C)Nc2ccc(Cl)nc2C(=O)NS(C)(=O)=O)c2nc(N3C[C@@H]4[C@H](C3)[C@H]4c3nn(C)nc3C)n(C)c(=O)c2c1` [Compound 497, 6-chloro-3-(((R)-1-(2-((1R,5S,6R)-6-(2,5-dimethyl-2H-1,2,3-triazol-4-yl)-3-azabicyclo[3.1.0]hexan-3-yl)-3,6-dimethyl-4-oxo-3,4-dihydroquinazolin-8-yl)ethyl)amino)-N-(methylsulfonyl) picolinamide], for which the figures for the IC50 in assay [1] (setting [5]) and in assay [2] (setting [6]) were < 0.25 µM and 1 to 5 µM, respectively.

For `Cc1cc([C@@H](C)Nc2ccc(Cl)nc2C(=O)NS(C)(=O)=O)c2nc(-c3ccc(N4CCN(C)CC4)nc3)n(C)c(=O)c2c1` [Compound 251], the IC50 is < 0.25 µM in assay [1] (setting [3]) and 1 to 5 µM in assay [2] (setting [4]).

Turning to `Cc1cc([C@@H](C)Nc2ccc(Cl)nc2C(=O)NS(C)(=O)=O)c2nc(N3CCN(c4ncc(Cl)cn4)CC3)n(C)c(=O)c2c1` [Compound 530, (R)-6-chloro-3-((1-(2-(4-(5-chloropyrimidin-2-yl)piperazin-1-yl)-3,6-dimethyl-4-oxo-3,4-dihydroquinazolin-8-yl)ethyl)amino)-N-(methylsulfonyl) picolinamide], the results for the IC50 in assay [1] (setting [5]) and in assay [2] (setting [6]) were 0.25 to 0.5 µM and ≥ 5 µM, respectively.

For the compound `Cc1cc([C@@H](C)Nc2ccc(Cl)nc2C(=O)NS(C)(=O)=O)c2nc(-c3ccc4c(c3)CN(C)C4=O)n(C)c(=O)c2c1` [Compound 796, (R)-6-chloro-3-((1-(3,6-dimethyl-2-(2-methyl-1-oxoisoindolin-5-yl)-4-oxo-3,4-dihydroquinazolin-8-yl)ethyl)amino)-N-(methylsulfonyl) picolinamide], the IC50 in assay [1] (setting [5]) was < 0.25 µM; in assay [2] (setting [6]), 1 to 5 µM.

In the case of `Cc1cc([C@@H](C)Nc2ccc(Cl)nc2C(=O)NS(C)(=O)=O)c2nc(N3C[C@@H]4[C@H](C3)[C@H]4c3ccn(C(F)F)n3)n(C)c(=O)c2c1` [Compound 470, 6-chloro-3-(((R)-1-(2-((1R,5S,6R)-6-(1-(difluoromethyl)-1H-pyrazol-3-yl)-3-azabicyclo[3.1.0]hexan-3-yl)-3,6-dimethyl-4-oxo-3,4-dihydroquinazolin-8-yl)ethyl)amino)-N-(methylsulfonyl) picolinamide], the IC50 in assay [1] (setting [5]) was < 0.25 µM; in assay [2] (setting [6]), 1 to 5 µM.

Regarding `Cc1cc([C@@H](C)Nc2ccc(Cl)nc2C(=O)NS(C)(=O)=O)c2nc(N3C[C@@H]4[C@H](C3)[C@H]4c3c(F)cnn3C3CC3)n(C)c(=O)c2c1` [Compound 570, 6-chloro-3-(((R)-1-(2-((1R,5S,6R)-6-(1-cyclopropyl-4-fluoro-1H-pyrazol-5-yl)-3-azabicyclo[3.1.0]hexan-3-yl)-3,6-dimethyl-4-oxo-3,4-dihydroquinazolin-8-yl)ethyl)amino)-N-(methylsulfonyl) picolinamide], the IC50 is < 0.25 µM in assay [1] (setting [5]) and ≥ 5 µM in assay [2] (setting [6]).

As for `Cc1cc([C@@H](C)Nc2ccc(Cl)nc2C(=O)NS(C)(=O)=O)c2nc(N3CCC(c4ccnn4C)CC3)n(C)c(=O)c2c1` [Compound 389, (R)-6-chloro-3-((1-(3,6-dimethyl-2-(4-(1-methyl-1H-pyrazol-5-yl)piperidin-1-yl)-4-oxo-3,4-dihydroquinazolin-8-yl)ethyl)amino)-N-(methylsulfonyl) picolinamide], the figures for the IC50 in assay [1] (setting [3]) and in assay [2] (setting [4]) were < 0.25 µM and 1 to 5 µM, respectively.

In the case of `Cc1cc([C@@H](C)Nc2ccc(Cl)nc2C(=O)NS(C)(=O)=O)c2nc(N3CCc4nn(C5COC5)cc4C3)n(C)c(=O)c2c1` [Compound 334, (R)-6-chloro-3-((1-(3,6-dimethyl-2-(2-(oxetan-3-yl)-2,4,6,7-tetrahydro-5H-pyrazolo[4,3-c]pyridin-5-yl)-4-oxo-3,4-dihydroquinazolin-8-yl)ethyl)amino)-N-(methylsulfonyl) picolinamide], the IC50 in assay [1] (setting [3]) was < 0.25 µM; in assay [2] (setting [4]), 1 to 5 µM.

For the compound `Cc1cc([C@@H](C)Nc2ccc(Cl)nc2C(=O)NS(C)(=O)=O)c2nc(N3CCC(c4cc(C)n(C)n4)CC3)n(C)c(=O)c2c1` [Compound 287, (R)-6-chloro-3-((1-(2-(4-(1,5-dimethyl-1H-pyrazol-3-yl)piperidin-1-yl)-3,6-dimethyl-4-oxo-3,4-dihydroquinazolin-8-yl)ethyl)amino)-N-(methylsulfonyl) picolinamide], the IC50 is < 0.25 µM in assay [1] (setting [3]) and 1 to 5 µM in assay [2] (setting [4]).

For the origin of these results see patent publication US12281122B1, “PI3K inhibitors” (Cogent Biosciences, Inc., priority 2023, dated 2025).
